According to patent US11534441B2, “MAP4K1 inhibitors” (Blueprint Medicines Corporation, priority 2020, dated 2022):

What was measured:
MAP4K1 (HPK1) = MAP4K1 (HPK1) (Homo sapiens (Human), UniProt Q92918); assay: MAP4K1 (HPK1) biochemical enzymatic activity, electrophoretic mobility shift (EZReader 2), ATP at APPKM (26 μM)
In short: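 Enzyme at 0.1-15 nM was incubated with 1.5 μM fluorescent peptide and ATP at the apparent Km (26 μM) in HEPES pH 7.5, MgCl2, DTT and Brij 35. The reaction ran at 25° C for 60-180 min with a 10-point, 4-fold compound series (1% DMSO) and was stopped with EDTA. Substrate and product peptides were resolved by microfluidic mobility shift, and their peak ratio gave activity.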

expanded CD3+ T cells = assay: T cell enhancement of cytokines: IL2 measurement (HTRF) in expanded CD3+ T cells stimulated with anti-CD3/anti-CD28; assay type: cell-based, human; details: IL-2 measurement
In short: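 Healthy-donor T cells (95-98% CD3+) expanded 10-14 days with IL2 and CD3/CD28 beads, then cryopreserved. 100K cells/well in X-VIVO 10 serum-free medium were stimulated with plate-bound anti-CD3 plus soluble anti-CD28 with compound at various concentrations for 24 h. Secreted IL2 measured by HTRF after 24 h antibody incubation.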

[1] = Homo sapiens, T-cell, class designation
[2] = Homo sapiens, T-cell, numeric value

Chain of MAP4K1 (HPK1) (Q92918 whole entry): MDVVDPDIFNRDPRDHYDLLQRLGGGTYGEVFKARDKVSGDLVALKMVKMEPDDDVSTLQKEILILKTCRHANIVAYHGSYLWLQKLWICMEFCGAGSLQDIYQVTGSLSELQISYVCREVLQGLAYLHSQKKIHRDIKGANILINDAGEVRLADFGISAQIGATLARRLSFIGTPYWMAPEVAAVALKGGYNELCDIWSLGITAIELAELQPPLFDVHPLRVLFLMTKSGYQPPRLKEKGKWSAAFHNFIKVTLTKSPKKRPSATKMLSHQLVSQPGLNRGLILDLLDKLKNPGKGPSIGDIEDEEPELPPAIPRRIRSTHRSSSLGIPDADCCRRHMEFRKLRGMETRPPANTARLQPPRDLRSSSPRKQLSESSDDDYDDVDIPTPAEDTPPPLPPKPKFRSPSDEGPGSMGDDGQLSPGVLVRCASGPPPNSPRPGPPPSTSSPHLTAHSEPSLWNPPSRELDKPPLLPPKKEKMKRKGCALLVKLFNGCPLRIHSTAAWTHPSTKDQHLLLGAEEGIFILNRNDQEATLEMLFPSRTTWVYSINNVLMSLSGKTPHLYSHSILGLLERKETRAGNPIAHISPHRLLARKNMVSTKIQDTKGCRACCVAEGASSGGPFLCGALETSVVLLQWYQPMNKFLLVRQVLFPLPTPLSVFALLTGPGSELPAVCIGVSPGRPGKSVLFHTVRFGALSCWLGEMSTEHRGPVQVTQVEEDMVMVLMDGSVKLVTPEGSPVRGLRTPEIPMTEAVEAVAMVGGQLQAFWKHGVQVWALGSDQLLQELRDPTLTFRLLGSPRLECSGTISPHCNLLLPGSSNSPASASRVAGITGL

SMILES: CC(C)(N)c1cnc(OC2CC2)c2cnc(Nc3ccc4c(n3)C(C)(C)OC4=O)cc12 [Compound 105]
- IC50 (MAP4K1 (HPK1); class designation): 1.1 to 10 nM
- IC50 (MAP4K1 (HPK1); numeric value): 2.09 nM
- EC50 (expanded CD3+ T cells; [1]): 45.1 to 55 nM
- EC50 (expanded CD3+ T cells; [2]): 50.6 nM

SMILES: C[C@@H]1OC(=O)c2ccc(Nc3cc4c(C(C)(C)N)cnc(NC5CC5)c4cn3)nc2[C@H]1C [Compound 109]
- IC50 (MAP4K1 (HPK1); class designation): < 0.3 nM
- IC50 (MAP4K1 (HPK1); numeric value): 0.21 nM
- EC50 (expanded CD3+ T cells; [1]): < 35 nM
- EC50 (expanded CD3+ T cells; [2]): 9.8 nM

SMILES: CC[C@@](C)(N)c1cnc(OC2CC2)c2cnc(Nc3ccc4c(n3)C(C)(C)OC4=O)cc12 [Compound 110]
- IC50 (MAP4K1 (HPK1); class designation): 0.31 to 1 nM
- IC50 (MAP4K1 (HPK1); numeric value): 0.55 nM
- EC50 (expanded CD3+ T cells; class designation): < 35 nM
- EC50 (expanded CD3+ T cells; numeric value): 33.9 nM

SMILES: CC[C@](C)(N)c1cnc(OC2CC2)c2cnc(Nc3ccc4c(n3)C(C)(C)OC4=O)cc12 [Compound 111]
- IC50 (MAP4K1 (HPK1); class designation): > 10 nM
- IC50 (MAP4K1 (HPK1); numeric value): 16.8 nM
- EC50 (expanded CD3+ T cells; class designation): > 55 nM
- EC50 (expanded CD3+ T cells; numeric value): 2660 nM

SMILES: CC(C)(N)c1cnc(OC2CC2)c2cnc(Nc3ccc4c(n3)C(C)(C)COC4=O)cc12 [Compound 112]
- IC50 (MAP4K1 (HPK1); class designation): < 0.3 nM
- IC50 (MAP4K1 (HPK1); numeric value): 0.23 nM
- EC50 (expanded CD3+ T cells; [1]): < 35 nM
- EC50 (expanded CD3+ T cells; [2]): 19.6 nM

SMILES: CC[C@]1(C)OC(=O)c2ccc(Nc3cc4c(C(C)(C)N)cnc(OC5CC5)c4cn3)nc21 [Compound 113]
- IC50 (MAP4K1 (HPK1); class designation): 0.31 to 1 nM
- IC50 (MAP4K1 (HPK1); numeric value): 0.58 nM
- EC50 (expanded CD3+ T cells; class designation): < 35 nM
- EC50 (expanded CD3+ T cells; numeric value): 32.7 nM

SMILES: CC[C@@]1(C)OC(=O)c2ccc(Nc3cc4c(C(C)(C)N)cnc(OC5CC5)c4cn3)nc21 [Compound 114]
- IC50 (MAP4K1 (HPK1); class designation): 0.31 to 1 nM
- IC50 (MAP4K1 (HPK1); numeric value): 0.88 nM
- EC50 (expanded CD3+ T cells; class designation): < 35 nM
- EC50 (expanded CD3+ T cells; numeric value): 25.6 nM

SMILES: CC(C)(N)c1cnc(OCC(F)(F)F)c2cnc(Nc3ccnc(C(C)(C)F)n3)cc12 [Compound 115]
- IC50 (MAP4K1 (HPK1); class designation): > 10 nM
- IC50 (MAP4K1 (HPK1); numeric value): 7.39 nM
- EC50 (expanded CD3+ T cells; [1]): > 55 nM
- EC50 (expanded CD3+ T cells; [2]): 232 nM

SMILES: CC(C)(N)c1cnc(OCC(F)F)c2cnc(Nc3ccc4c(n3)C(C)(C)OC4=O)cc12 [Compound 116]
- IC50 (MAP4K1 (HPK1); class designation): 1.1 to 10 nM
- IC50 (MAP4K1 (HPK1); numeric value): 2.14 nM
- EC50 (expanded CD3+ T cells; [1]): > 55 nM
- EC50 (expanded CD3+ T cells; [2]): 64.9 nM

SMILES: C[C@@H]1c2nc(Nc3cc4c(C(C)(C)N)cnc(NC5CC5)c4cn3)ccc2C(=O)OC1(C)C [Compound 123]
- IC50 (MAP4K1 (HPK1); class designation): < 0.3 nM
- IC50 (MAP4K1 (HPK1); numeric value): 0.2 nM
- EC50 (expanded CD3+ T cells; [1]): < 35 nM
- EC50 (expanded CD3+ T cells; [2]): 7.6 nM

SMILES: C[C@@H]1OC(=O)c2ccc(Nc3cc4c(C(C)(C)N)cnc(NC5CCC5)c4cn3)nc2[C@H]1C [Compound 124]
- IC50 (MAP4K1 (HPK1); class designation): < 0.3 nM
- IC50 (MAP4K1 (HPK1); numeric value): 0.24 nM
- EC50 (expanded CD3+ T cells; [1]): < 35 nM
- EC50 (expanded CD3+ T cells; [2]): 7.4 nM

SMILES: C[C@H]1OC(=O)c2ccc(Nc3cc4c(C(C)(C)N)cnc(OC5CC5)c4cn3)nc2C1(C)C [Compound 127]
- IC50 (MAP4K1 (HPK1); class designation): < 0.3 nM
- IC50 (MAP4K1 (HPK1); numeric value): 0.17 nM
- EC50 (expanded CD3+ T cells; class designation): < 35 nM
- EC50 (expanded CD3+ T cells; numeric value): 21 nM

SMILES: CC[C@](C)(N)c1cnc(OC2CC2)c2cnc(Nc3ccc4c(n3)[C@@H](C)[C@H](C)OC4=O)cc12 [Compound 131]
- IC50 (MAP4K1 (HPK1); class designation): 0.31 to 1 nM
- IC50 (MAP4K1 (HPK1); numeric value): 0.46 nM
- EC50 (expanded CD3+ T cells; class designation): 35.1 to 45 nM
- EC50 (expanded CD3+ T cells; numeric value): 35.2 nM

SMILES: CC[C@](C)(N)c1cnc(OC2CC2)c2cnc(Nc3ccc4c(n3)CC(C)(C)OC4=O)cc12 [Compound 133]
- IC50 (MAP4K1 (HPK1); class designation): 1.1 to 10 nM
- IC50 (MAP4K1 (HPK1); numeric value): 5.86 nM
- EC50 (expanded CD3+ T cells; class designation): 45.1 to 55 nM
- EC50 (expanded CD3+ T cells; numeric value): 53.8 nM

SMILES: CC1(C)Cc2nc(Nc3cc4c(C(C)(C)N)cnc(OC5(C)CC5)c4cn3)ccc2C(=O)O1 [Compound 135]
- IC50 (MAP4K1 (HPK1); class designation): 0.31 to 1 nM
- IC50 (MAP4K1 (HPK1); numeric value): 0.54 nM
- EC50 (expanded CD3+ T cells; [1]): < 35 nM
- EC50 (expanded CD3+ T cells; [2]): 31.6 nM

SMILES: CC[C@@](C)(N)c1cnc(OC2CC2)c2cnc(Nc3ccc4c(n3)C(C)(C)COC4=O)cc12 [Compound 136]
- IC50 (MAP4K1 (HPK1); class designation): 0.31 to 1 nM
- IC50 (MAP4K1 (HPK1); numeric value): 0.39 nM
- EC50 (expanded CD3+ T cells; class designation): 35.1 to 45 nM
- EC50 (expanded CD3+ T cells; numeric value): 40.5 nM

SMILES: CC[C@H]1c2nc(Nc3cc4c(C(C)(C)N)cnc(OC5CC5)c4cn3)ccc2C(=O)O[C@H]1C [Compound 138]
- IC50 (MAP4K1 (HPK1); class designation): < 0.3 nM
- IC50 (MAP4K1 (HPK1); numeric value): 0.27 nM
- EC50 (expanded CD3+ T cells; class designation): < 35 nM
- EC50 (expanded CD3+ T cells; numeric value): 13.8 nM

SMILES: C[C@@H]1OC(=O)c2ccc(Nc3cc4c(C(C)(C)N)cnc(OC5COC5)c4cn3)nc2[C@H]1C [Compound 141]
- IC50 (MAP4K1 (HPK1); class designation): 0.31 to 1 nM
- IC50 (MAP4K1 (HPK1); numeric value): 0.42 nM
- EC50 (expanded CD3+ T cells; [1]): < 35 nM
- EC50 (expanded CD3+ T cells; [2]): 21.6 nM
